The target of assay [1] is T1, Sodium-dependent dopamine transporter (Rattus norvegicus, UniProt P23977). Briefly: Binding affinity towards dopamine transporter in rat striatum using [3H]WIN-35 428 as radioligand. The assay is classed as tissue-based.
For assay [2], the target named is Norepinephrine transporter (Rattus norvegicus, UniProt Q9WTR4). Briefly: Binding affinity towards norepinephrine transporter in rat striatum using [3H]nisoxetine as radioligand. The format is tissue-based.
In assay [3] the target is Sodium-dependent serotonin transporter (Rattus norvegicus, UniProt P31652). Briefly: Binding affinity towards serotonin transporter in rat striatum using [3H]citalopram as radioligand. The format is tissue-based.
Sequence of Sodium-dependent serotonin transporter (P31652 whole entry): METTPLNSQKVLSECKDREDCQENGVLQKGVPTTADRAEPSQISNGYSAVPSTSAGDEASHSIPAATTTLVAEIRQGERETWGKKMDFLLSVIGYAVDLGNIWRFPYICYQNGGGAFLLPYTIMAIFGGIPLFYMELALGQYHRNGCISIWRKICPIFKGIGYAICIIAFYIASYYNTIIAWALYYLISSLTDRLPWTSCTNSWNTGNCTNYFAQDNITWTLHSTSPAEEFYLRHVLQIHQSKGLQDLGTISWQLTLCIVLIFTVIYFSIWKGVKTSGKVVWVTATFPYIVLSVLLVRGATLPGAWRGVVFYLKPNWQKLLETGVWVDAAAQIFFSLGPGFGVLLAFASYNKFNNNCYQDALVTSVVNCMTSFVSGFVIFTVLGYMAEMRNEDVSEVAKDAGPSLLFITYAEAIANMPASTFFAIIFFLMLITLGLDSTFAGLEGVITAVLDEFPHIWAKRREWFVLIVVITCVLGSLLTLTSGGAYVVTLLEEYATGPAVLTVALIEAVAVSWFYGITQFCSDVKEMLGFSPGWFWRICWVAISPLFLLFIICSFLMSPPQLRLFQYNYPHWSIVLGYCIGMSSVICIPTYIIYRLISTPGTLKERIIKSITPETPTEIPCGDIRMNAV
The target in assay [4] is T1, Sodium-dependent dopamine transporter. The experiment in a line: Inhibition of uptake from dopamine transporter in rat striatum using [3H]DA as radioligand. The assay is classed as functional, tissue-based.

T1 sequence (P23977 whole entry): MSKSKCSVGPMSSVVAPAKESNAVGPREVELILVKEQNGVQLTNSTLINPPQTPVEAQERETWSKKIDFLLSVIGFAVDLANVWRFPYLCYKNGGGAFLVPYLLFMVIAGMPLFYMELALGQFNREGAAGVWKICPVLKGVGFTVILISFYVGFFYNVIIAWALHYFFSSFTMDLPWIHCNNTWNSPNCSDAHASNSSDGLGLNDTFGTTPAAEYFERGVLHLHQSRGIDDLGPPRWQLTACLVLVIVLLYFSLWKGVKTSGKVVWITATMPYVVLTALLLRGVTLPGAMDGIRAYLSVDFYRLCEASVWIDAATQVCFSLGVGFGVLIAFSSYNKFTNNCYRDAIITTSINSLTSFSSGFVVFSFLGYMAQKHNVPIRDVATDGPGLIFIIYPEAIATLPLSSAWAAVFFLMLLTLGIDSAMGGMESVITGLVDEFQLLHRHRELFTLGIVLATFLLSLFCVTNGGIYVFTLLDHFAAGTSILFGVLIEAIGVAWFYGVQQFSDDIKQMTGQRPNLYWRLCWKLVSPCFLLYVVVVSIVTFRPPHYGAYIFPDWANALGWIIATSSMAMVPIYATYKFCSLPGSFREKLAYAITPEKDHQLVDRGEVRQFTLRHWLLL
Sequence of Norepinephrine transporter (Q9WTR4 whole entry): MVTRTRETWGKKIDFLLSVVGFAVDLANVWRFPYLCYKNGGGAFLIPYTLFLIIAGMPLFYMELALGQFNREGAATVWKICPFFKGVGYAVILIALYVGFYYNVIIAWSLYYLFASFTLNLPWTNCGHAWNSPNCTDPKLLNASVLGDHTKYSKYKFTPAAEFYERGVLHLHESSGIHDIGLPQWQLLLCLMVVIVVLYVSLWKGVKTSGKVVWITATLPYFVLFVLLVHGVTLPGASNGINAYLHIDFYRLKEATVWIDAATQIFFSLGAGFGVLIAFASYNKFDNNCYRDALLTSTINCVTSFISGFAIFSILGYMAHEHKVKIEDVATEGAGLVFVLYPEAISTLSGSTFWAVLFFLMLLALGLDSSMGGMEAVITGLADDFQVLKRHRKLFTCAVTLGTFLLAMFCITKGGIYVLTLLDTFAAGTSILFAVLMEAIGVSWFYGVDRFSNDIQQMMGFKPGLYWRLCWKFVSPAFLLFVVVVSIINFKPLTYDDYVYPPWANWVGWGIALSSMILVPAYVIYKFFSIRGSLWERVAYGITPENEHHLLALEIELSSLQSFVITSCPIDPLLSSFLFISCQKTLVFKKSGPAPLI

The term IC50 denotes the point on the concentration scale where inhibition reaches its midpoint. On to `CCC(=O)O[C@@H]1CN(Cc2ccc(F)cc2)CC[C@H]1CCOC(c1ccccc1)c1ccccc1`, for which the IC50 in assay [1] worked out at 583 nM; in assay [2], 35800 nM; in assay [3], 178000 nM.
Turning to `Fc1ccc(CN2CC=C(CCOC(c3ccccc3)c3ccccc3)CC2)cc1`, the IC50 worked out at 37.8 nM in assay [1] and 1110 nM in assay [3].
For the compound `Fc1ccc(CN2CCC(CCOC(c3ccccc3)c3ccccc3)CC2)cc1`, the IC50 in assay [4] came to 2.48 nM.
Take `O=C1CN(Cc2ccc(F)cc2)CC[C@H]1CCOC(c1ccccc1)c1ccccc1`: the IC50 was 99 nM in assay [1], 6300 nM in assay [2] and 7750 nM in assay [3].
Turning to `O[C@@H]1CN(Cc2ccc(F)cc2)CC[C@H]1CCOC(c1ccccc1)c1ccccc1`, the IC50 in assay [1] stood at 56.7 nM; in assay [2], 1550 nM; in assay [3], 1830 nM; in assay [4], 38 nM.
Take `OC1CN(Cc2ccc(F)cc2)CC[C@@H]1CCOC(c1ccccc1)c1ccccc1` (stereo not given in full): the IC50 in assay [1] came to 0.46 nM; in assay [2], 1880 nM; in assay [3] it was 3600 nM; in assay [4], 4.05 nM.
For `O[C@H]1CN(Cc2ccc(F)cc2)CC[C@H]1CCOC(c1ccccc1)c1ccccc1` (racemic), the IC50 in assay [1] stood at 11.2 nM; in assay [2], 2150 nM; in assay [3], 3310 nM; in assay [4], 10.1 nM.
Consider `O[C@@H]1CN(Cc2ccc(F)cc2)CC[C@H]1CCOC(c1ccccc1)c1ccccc1` (racemic), for which the IC50 came to 4.14 nM in assay [1], 1030 nM in assay [2], 2360 nM in assay [3] and 3.22 nM in assay [4].

For the origin of these results see ChEMBL document CHEMBL1136714 (J Med Chem, 2003).
